Assay: xn = mol fraction of the nth substance listed

CCCC[P+](CC)(CCCC)CCCC.F[B-](F)(F)F + CC#N
viscosity [mPa·s], 100 kPa
Conditions | x1 = 0.004068 | x1 = 0.008179 | x1 = 0.01204 | x1 = 0.01601 | x1 = 0.01998 | x1 = 0.02358 | x1 = 0.02792 | x1 = 0.03171 | x1 = 0.03517 | x1 = 0.03939
293.15 K | 0.373 | 0.392 | 0.411 | 0.431 | 0.452 | 0.473 | 0.497 | 0.521 | 0.542 | 0.57
298.15 K | 0.355 | 0.374 | 0.391 | 0.41 | 0.429 | 0.448 | 0.471 | 0.494 | 0.513 | 0.539
303.15 K | 0.34 | 0.357 | 0.373 | 0.391 | 0.409 | 0.426 | 0.448 | 0.469 | 0.486 | 0.511
308.15 K | 0.326 | 0.342 | 0.356 | 0.372 | 0.389 | 0.406 | 0.426 | 0.446 | 0.462 | 0.486
313.15 K | 0.313 | 0.327 | 0.341 | 0.356 | 0.372 | 0.389 | 0.406 | 0.424 | 0.44 | 0.463
318.15 K | 0.3 | 0.313 | 0.326 | 0.341 | 0.356 | 0.37 | 0.387 | 0.404 | 0.419 | 0.44

CCCC[n+]1ccn(C)c1.[Cl-] + CC#N
298.15 K, 101 kPa, x2 = 0.8012
Conditions | electrical conductivity [S/m] | viscosity [mPa·s]
– | 1.53 | 3.52

CCCC[n+]1ccn(C)c1.COP(=O)([O-])OC + CC(=O)O.CC(=O)[O-].CC[NH+](CC)CCO
101 kPa, x2 = 0
Conditions | viscosity [mPa·s]
283.15 K | 2142
298.15 K | 609
353.15 K | 36.02
358.15 K | 30.38

CCCC[n+]1ccn(C)c1.COP(=O)([O-])OC + CC(=O)[O-].CCCC[NH2+]CCO
101 kPa, x2 = 0
Conditions | viscosity [mPa·s]
278.15 K | 3503
283.15 K | 2142
288.15 K | 1361
293.15 K | 895
298.15 K | 609
303.15 K | 426
308.15 K | 305.8
313.15 K | 224.9
318.15 K | 168.9
323.15 K | 129.4
328.15 K | 100.9
333.15 K | 79.9
338.15 K | 64.25
343.15 K | 52.35
348.15 K | 43.18
353.15 K | 36.02
358.15 K | 30.38
363.15 K | 25.86
368.15 K | 22.22
373.15 K | 19.25

[Cl-].[NH4+] + CC(=O)[O-].CC[n+]1ccn(C)c1
101 kPa
Conditions | electrical conductivity [S/m] | viscosity [mPa·s]
298.15 K, x1 = 0.0505 | 0.234 | 172
303.15 K, x1 = 0.0505 | 0.308 | 124.6
313.15 K, x1 = 0.0999 | 0.431 | 91.7
313.15 K, x1 = 0.1702 | 0.341 | 142.8
318.15 K, x1 = 0.0505 | 0.622 | 55.4
323.15 K, x1 = 0.0505 | 0.755 | 44

CCCCCCCCCCCCCCCC[n+]1ccccc1.O=C([O-])c1ccccc1O + CC(C)C[C@H](N)C(=O)O + O
electrical conductivity [S/m], 101 kPa
Conditions | 293.15 K | 298.15 K | 303.15 K | 308.15 K | 313.15 K
x2 = 0.0009002, x1 = 3.6e-07 | 0.000905 | 0.00101 | 0.00113 | 0.00125 | 0.00138
x2 = 0.0009002, x1 = 7.2e-07 | 0.00104 | 0.00117 | 0.0013 | 0.00144 | 0.00159
x2 = 0.0009002, x1 = 9.1e-07 | 0.00119 | 0.00133 | 0.00148 | 0.00164 | 0.00181
x2 = 0.0009002, x1 = 1.27e-06 | 0.00132 | 0.00148 | 0.00165 | 0.00183 | 0.00201
x2 = 0.0009002, x1 = 1.63e-06 | 0.00147 | 0.00166 | 0.00184 | 0.00204 | 0.00225
x2 = 0.0009002, x1 = 1.99e-06 | 0.00163 | 0.00185 | 0.00207 | 0.00229 | 0.00253
x2 = 0.0009002, x1 = 2.54e-06 | 0.00179 | 0.00203 | 0.00229 | 0.00255 | 0.00282
x2 = 0.0009002, x1 = 2.9e-06 | – | – | – | 0.00275 | 0.00309
x2 = 0.0009002, x1 = 3.08e-06 | 0.00192 | 0.00218 | 0.00246 | – | –
x2 = 0.0009002, x1 = 3.44e-06 | 0.00203 | 0.00231 | 0.00263 | 0.00297 | 0.00331
x2 = 0.0009002, x1 = 3.81e-06 | – | 0.00243 | 0.00276 | 0.00311 | 0.00348
x2 = 0.0009002, x1 = 3.99e-06 | 0.00214 | – | – | – | –
x2 = 0.0009002, x1 = 4.35e-06 | 0.00224 | 0.00256 | 0.00289 | 0.00327 | 0.00366
x2 = 0.0009002, x1 = 4.71e-06 | 0.00235 | 0.00268 | 0.00303 | 0.00342 | 0.00383
x2 = 0.0009002, x1 = 5.07e-06 | – | – | 0.00316 | 0.00356 | 0.00399
x2 = 0.0009002, x1 = 5.26e-06 | 0.00246 | 0.0028 | – | – | –
x2 = 0.0009002, x1 = 5.62e-06 | 0.00255 | 0.0029 | 0.00328 | 0.00369 | 0.00415
x2 = 0.0009002, x1 = 5.98e-06 | 0.00266 | 0.00302 | 0.00341 | 0.00383 | 0.0043
x2 = 0.001799, x1 = 3.6e-07 | 0.00153 | 0.00172 | 0.00192 | 0.00213 | 0.00235
x2 = 0.001799, x1 = 5.5e-07 | 0.00167 | 0.00187 | 0.00208 | 0.00231 | 0.00256
x2 = 0.001799, x1 = 9.1e-07 | 0.00179 | 0.00201 | 0.00224 | 0.00249 | 0.00275
x2 = 0.001799, x1 = 1.09e-06 | 0.00192 | 0.00216 | 0.00241 | 0.00268 | 0.00296
x2 = 0.001799, x1 = 1.46e-06 | 0.00204 | 0.00229 | 0.00256 | 0.00283 | 0.00313
x2 = 0.001799, x1 = 1.64e-06 | 0.00212 | 0.00239 | 0.00267 | 0.00297 | 0.00329
x2 = 0.001799, x1 = 1.82e-06 | 0.00221 | 0.00248 | 0.00278 | 0.00309 | 0.00341
x2 = 0.001799, x1 = 2e-06 | 0.00227 | 0.00257 | 0.00288 | 0.00321 | 0.00356
x2 = 0.001799, x1 = 2.19e-06 | 0.00235 | – | 0.003 | 0.00334 | 0.0037
x2 = 0.001799, x1 = 2.37e-06 | – | – | – | – | 0.00384
x2 = 0.001799, x1 = 2.55e-06 | 0.00242 | 0.00275 | – | 0.00345 | –
x2 = 0.001799, x1 = 2.73e-06 | 0.00249 | 0.00284 | 0.00322 | 0.00361 | 0.00402
x2 = 0.001799, x1 = 3.1e-06 | 0.00256 | 0.00291 | 0.0033 | 0.0037 | 0.00413
x2 = 0.001799, x1 = 3.28e-06 | 0.00262 | 0.00298 | 0.00338 | 0.00379 | 0.00423
x2 = 0.001799, x1 = 3.46e-06 | – | – | – | – | 0.00434
x2 = 0.001799, x1 = 3.64e-06 | 0.00269 | 0.00306 | 0.00347 | 0.00389 | –
x2 = 0.001799, x1 = 3.83e-06 | 0.00275 | 0.00312 | 0.00354 | 0.00397 | 0.00443

CCCCCC[n+]1ccn(C)c1.O=S(=O)([O-])C(F)(F)F + CC(C)O
100 kPa
Conditions | viscosity [mPa·s]
293.15 K, x2 = 0.9231 | 3.79
298.15 K, x2 = 0.1282 | 99
298.15 K, x2 = 0.2454 | 67.9
298.15 K, x2 = 0.469 | 31.4
303.15 K, x2 = 0.3506 | 41.2
313.15 K, x2 = 0.9231 | 2.08

CCOP(=O)([O-])OCC.CC[n+]1ccn(C)c1 + CC(C)O + O
100 kPa
Conditions | viscosity [mPa·s]
298.15 K, x2 = 0.299, x3 = 0.3 | 79
313.15 K, x2 = 0.199, x3 = 0.2008 | 90
323.15 K, x2 = 0.099, x3 = 0.0998 | 94
323.15 K, x2 = 0.15, x3 = 0.1498 | 76

From the CheMixHub ionic liquid set
